In test [1] the target is T1, ErbB3(667-1053) protein (Her3) (Homo sapiens, UniProt P21860).
T1 construct: Purified ErbB3(667-1053) protein was obtained from Invitrogen; purchased Invitrogen
T1 sequence (P21860 667-1053): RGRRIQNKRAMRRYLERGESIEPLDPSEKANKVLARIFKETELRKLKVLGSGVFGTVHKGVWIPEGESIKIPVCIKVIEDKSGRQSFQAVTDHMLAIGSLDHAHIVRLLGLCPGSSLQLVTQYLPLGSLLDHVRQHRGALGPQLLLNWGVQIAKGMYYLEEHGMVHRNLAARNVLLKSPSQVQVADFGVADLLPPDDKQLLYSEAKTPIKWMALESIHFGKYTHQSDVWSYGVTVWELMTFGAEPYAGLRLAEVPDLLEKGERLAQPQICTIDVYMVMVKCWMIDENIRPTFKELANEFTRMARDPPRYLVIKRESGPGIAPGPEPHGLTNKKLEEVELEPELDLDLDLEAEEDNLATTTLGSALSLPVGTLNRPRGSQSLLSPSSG
The test can be described thus: LanthaScreen Eu kinase binding assay (Her3 ATP-site binding). Particulars: binding to the ATP-site of Her3. As for the experimental part:
To discover chemical starting points for developing Her3 inhibitors, the inventors screened a library of 1,500 kinase-directed compounds using the LanthaScreen™ Eu methodology for compounds that could bind to the ATP-site of Her3. […] See, e.g., Stachlewitz et al., J Pharmacol Exp Ther. (2005) 315:36-41.
FIG. 2 depicts binding affinity data for exemplary compounds of Formula (II). Binding affinity (IC50) was measured by Invitrogen LanthaScreen™ Eu kinase binding assay which is based on the binding and displacement of Alexa Fluor 647 labeled ATP-competitive kinase inhibitor scaffold (Kinase Tracer 178). Binding of the tracer to the kinase is detected using a europium-labeled anti-tag antibody (anti-GST). The binding of both the tracer and antibody to the kinase results in a high degree of FRET (fluorescenece resonance energy transfer) from the europium donor fluorophore to the Alexa Fluor 647 acceptor fluoropore on the kinase tracer. […] This centrifugation step will eliminate spurious data points that can arise on occasion due to any particulates in the product. • (3) Add 5 ul the mixture of ErbB3 protein and Eu-anti-GST to 5 ul test compound solution per well in coming 384 plates. • (4) Add 5 ul tracer 178 at concentration of 39 nM per well. • (5) Incubate for 3 hours at 4° C. and read plate with Perkin Elmer EnVision. […]
On the technique in general: In TR-FRET formats the signal depends on donor and acceptor labels being close together.

Another test has as its system Her3-addicted cells. As to the kind of experiment: Her3-dependent growth / viability of Her3-addicted cells. The class given is cell-based. The text has this: (§1) Without wishing to be bound by any particular theory, the inventors hypothesize that this lack of inhibition is the result of poor cell penetration of TX2-62-1 due to its high molecular weight (MW=828.5). The inventors tested this hypothesis by designing a strategy whereby the two halves of TX2-62-1 (TX2-49-1 and TX2-57-1) were brought together inside of a cell via oxime formation. See Scheme 1 below.
FIG. 3 depicts anti-proliferation data for exemplary compounds of Formula (II). The anti-proliferation assay was carried out by using 96 well white bottom plates. 2000-4000 cells were seeded per well, and the medium volume per well was about 100 ul. Incubate for 3 days after adding and titrating indicated concentration of compounds. The cell viability was test by CellTiter-Glo® Luminescent Assay. In a typical experiment, add 10 ul CellTiter-Glo® reagent per well. Mix and shake the plate for 2 minutes to induce cell lysis at room temperature. Allow the plate to incubate at room temperature for approximately 10 minutes to stabilize luminescent signal. Read plate with Perkin Elmer EnVision. The cell numbers were normalized by the DMSO control. And the EC50s were calculated by GraphPad Prism.

The target of the next test is T2, Her3 (Homo sapiens, UniProt P21860).
T2 construct: endogenous in cells; host or cells: PC9 GR4
T2 sequence (P21860 20-1342): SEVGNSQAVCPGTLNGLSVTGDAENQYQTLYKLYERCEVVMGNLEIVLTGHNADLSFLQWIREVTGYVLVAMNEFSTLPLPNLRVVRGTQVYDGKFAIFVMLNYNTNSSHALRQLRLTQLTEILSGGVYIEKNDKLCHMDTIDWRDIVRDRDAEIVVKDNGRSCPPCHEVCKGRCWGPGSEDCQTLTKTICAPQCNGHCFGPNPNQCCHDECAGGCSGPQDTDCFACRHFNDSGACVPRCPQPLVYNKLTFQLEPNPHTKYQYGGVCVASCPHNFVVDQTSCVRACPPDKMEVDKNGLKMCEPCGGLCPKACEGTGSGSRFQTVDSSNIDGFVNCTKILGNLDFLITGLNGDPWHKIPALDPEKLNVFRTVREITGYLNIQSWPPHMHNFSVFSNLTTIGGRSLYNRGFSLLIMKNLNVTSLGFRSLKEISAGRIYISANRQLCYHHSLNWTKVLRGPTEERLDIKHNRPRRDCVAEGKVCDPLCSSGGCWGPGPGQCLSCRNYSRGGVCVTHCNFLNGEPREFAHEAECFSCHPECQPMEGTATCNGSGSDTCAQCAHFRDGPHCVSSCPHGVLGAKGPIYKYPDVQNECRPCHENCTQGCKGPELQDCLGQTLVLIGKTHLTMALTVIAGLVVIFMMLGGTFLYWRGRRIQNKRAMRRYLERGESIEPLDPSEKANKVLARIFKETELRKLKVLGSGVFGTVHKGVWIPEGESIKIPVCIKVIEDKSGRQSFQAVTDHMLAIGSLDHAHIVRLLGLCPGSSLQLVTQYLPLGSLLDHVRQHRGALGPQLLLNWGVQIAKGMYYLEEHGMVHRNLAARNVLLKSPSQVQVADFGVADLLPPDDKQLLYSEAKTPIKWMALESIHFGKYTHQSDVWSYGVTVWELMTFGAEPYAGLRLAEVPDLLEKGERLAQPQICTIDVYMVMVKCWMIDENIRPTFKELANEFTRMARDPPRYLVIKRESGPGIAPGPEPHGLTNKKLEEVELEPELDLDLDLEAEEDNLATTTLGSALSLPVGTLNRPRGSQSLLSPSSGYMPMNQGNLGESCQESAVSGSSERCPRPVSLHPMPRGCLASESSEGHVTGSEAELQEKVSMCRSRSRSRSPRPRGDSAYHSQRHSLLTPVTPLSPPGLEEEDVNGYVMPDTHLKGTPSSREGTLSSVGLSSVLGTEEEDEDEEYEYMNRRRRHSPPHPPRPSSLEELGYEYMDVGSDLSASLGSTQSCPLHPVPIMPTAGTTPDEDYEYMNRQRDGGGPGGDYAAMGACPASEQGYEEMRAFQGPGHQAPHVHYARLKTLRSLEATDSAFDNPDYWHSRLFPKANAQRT
The test can be described thus: Her3 protein degradation in cells. The class given is cell-based. The procedure:
as §1
(§2) PC9 Gefitinib Resistant 4 (GR4) cells were cultured in 60 mm plate with 10% fetal bovine serum (FBS), Roswell Park Memorial Institute medium (RPMI) medium. When the confluence reached 80%, cells were treated with compounds in indicated concentration. After 4 hours, wash cells with medium for three times. Cells were cultured for another 4 hours, followed by 3 times PBS washes. Cells were lysed with lysis buffer (25 mM Tris-HCl pH 7.4, 150 mM NaCl, 1 mM EDTA, 1% NP-40, 5% glycerol, Roche PhosSTOP phosphatase inhibitor cocktail tablets and Roche Complete Protease inhibitor cocktail tablets). […]
(§3) With the spectrophotometer set to 562 nm, zero the instrument on a cuvette filled only with water. Subsequently, measure the absorbance of all the samples with 10 minutes. Subtract the average 562 nm absorbance measurement of the Blank standard replicates from the 562 nm absorbance measurement of all other individual standard and unknown sample replicates. […]

In test [2] the test system is downstream effectors of Her3, such as Erk and Akt. As to the kind of experiment: Phosphorylation of downstream effectors of Her3 (Erk, Akt) in cells. The class given is cell-based. The following applies: TX2-62-1 formed inside the cell from TX2-49-1 and TX2-57-1 via oxime formation. The procedure: as §1, §2, §3
[3] abbreviates: TX2-62-1 formed inside the cell from TX2-49-1 and TX2-57-1 via oxime formation.

Molecules are shown by their SMILES.

Consider `COc1cc(-c2nn(C3CCC(N4CCN(C(C)=O)CC4)CC3)c3ncnc(N)c23)ccc1NC(=O)c1cc2ccccc2n1C` (centres unmarked) [KIN001-111, reference compound], for which the Her3 binding result in test [1] is on record as “most potent Her3 binder”.
Regarding `C=CC(=O)Nc1cc(-c2nn(C3CCC(N4CCN(C/C(C)=N/OCCNC(=O)CC5C6CC7CC(C6)CC5C7)CC4)CC3)c3ncnc(N)c23)ccc1Oc1ccccc1` (centres unmarked) [TX2-62-1], the “viability of Her3-addicted cells” value in the test with Her3-addicted cells (setting [3]) is “loss of viability of Her3-addicted cells”. Besides, the “cell proliferation after washout” value with Her3-addicted cells (after TX2-62-1 was washed out) is listed as “cell proliferation resumed”. The “inhibition of Her3-dependent growth” value in the test on Her3-addicted cells (compound added as preformed molecule) was “did not inhibit Her3-dependent growth”. The “degradation of Her3” value on Her3 (setting [3]) is recorded as “efficient degradation of Her3”. In addition, the “Her3 protein level after washout” value at Her3 (after TX2-62-1 was washed out) is “Her3 protein was resynthesized”. Also, the Her3 binding result in test [1] was “maintained potent and covalent Her3 binding ability”. Further, in test [2], the “inhibition of Her3-dependent signaling” value is on record as “inhibition of Her3-dependent signaling”.

For the origin of these results see USRE48175E1, “Hydrophobically tagged small molecules as inducers of protein degradation” (Dana-Farber Cancer Institute, Inc., priority 2012, dated 2020).
